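1) Cells in 96-well plates. 2) Compound, 48 h, 5 concentrations. 3) Linear interpolation between surrounding doses. 4) Unreached endpoint = highest concentration. TGI marks complete inhibition of growth.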
How the values were obtained:
Experiment in all cases: DTP human tumour cell line panel, 48 h
BT-549 breast = test system: BT-549 breast
CCRF-CEM leukemia = test system: CCRF-CEM leukemia
COLO 205 colon = test system: COLO 205 colon
HL-60(TB) leukemia = test system: HL-60(TB) leukemia
HOP-92 NSCLC = test system: HOP-92 NSCLC
HS 578T breast = test system: HS 578T breast
KM12 colon = test system: KM12 colon
MCF7 breast = test system: MCF7 breast
MDA-MB-231 breast = test system: MDA-MB-231 breast
NCI-H23 lung = test system: NCI-H23 lung
SK-MEL-28 melanoma = test system: SK-MEL-28 melanoma
MDA-N = test system: MDA-N

Structure (SMILES)	TGI (BT-549 breast) [µM]	TGI (CCRF-CEM leukemia) [µM]	TGI (COLO 205 colon) [µM]	TGI (HL-60(TB) leukemia) [µM]	TGI (HOP-92 NSCLC) [µM]	TGI (HS 578T breast) [µM]	TGI (KM12 colon) [µM]	TGI (MCF7 breast) [µM]	TGI (MDA-MB-231 breast) [µM]	TGI (NCI-H23 lung) [µM]	TGI (SK-MEL-28 melanoma) [µM]	TGI (MDA-N) [µM]
N#Cc1c(N2CCOCC2)[nH]c(=O)c(C(c2c(Cl)cccc2Cl)c2c(O)c(C#N)c(N3CCOCC3)[nH]c2=O)c1O	32.8	66.8	26.7	29.3	37.8	58.1	32.7	34.2	30.4	32.8	32.9	–
O=C1Oc2cc3c(c4cccc1c24)O[C@H](c1ccccc1)[C@@H](c1ccccc1)[C@@H]3c1ccc(Cl)cc1	–	> 100	> 100	> 100	67.9	> 100	> 100	> 100	52.3	> 100	> 100	> 100
CC(C)(C)S(=O)OC12CC3CC(CC(C3)C1)C2 (centres undefined)	–	> 100	> 100	–	–	–	–	–	–	> 100	> 100	–
CCOC(OC1=C(C#N)CCCC1)C(C)[Se]c1ccccc1 (centres undefined)	–	65	> 100	49.4	67.3	–	> 100	–	–	39.4	71.6	–
COc1ccc(CCNCCCC2c3ccccc3-c3ccccc32)cc1OC	35.6	49	3.4	47.7	18.2	39.8	30.4	20.3	–	28.9	23.1	30.8
Cn1c2ccccc2c(=O)c2[nH]c3ccccc3c21	–	> 100	> 100	–	> 100	–	> 100	> 100	> 100	> 100	59.5	> 100
N#CC(C#N)=Cn1c(=S)[nH]c2ccccc21	–	> 100	> 100	> 100	> 100	> 100	> 100	> 100	> 100	> 100	> 100	> 100
CCc1n[nH]c(=O)n1CCO	> 100	–	> 100	> 100	> 100	–	> 100	> 100	> 100	> 100	> 100	> 100
COc1cccc(-c2nc(-c3cnccn3)n(COCCO)n2)c1	> 100	> 100	> 100	> 100	> 100	–	> 100	> 100	> 100	> 100	> 100	> 100
Cc1cc(Cl)ccc1C1OC(=O)c2c1ccc1ccccc21 (centres undefined)	–	> 100	> 100	> 100	> 100	–	> 100	–	–	> 100	> 100	–
CC(C)(C)OC(=O)N(CCCCNCc1ccc2ccccc2c1)CCCNCc1ccc2ccccc2c1	3.25	2.86	2.72	0.507	3.18	3.3	2.73	–	2.28	3.42	3.39	–
Cc1ccc(S(=O)(=O)c2c(N)n(CCN(C)C)c3nc4ccccc4nc23)cc1	–	> 100	> 100	> 100	> 100	–	> 100	–	–	> 100	> 100	–
C=CCN1CN(c2ccccc2)C2(CCN(CCCC3(c4ccc(F)cc4)OCCO3)CC2)C1=O	–	41.4	37.9	29	–	–	29.8	30.5	33.7	30	30.8	–
COc1ccc(CCc2nccn2C)cc1OC	> 100	> 100	> 100	> 100	> 100	> 100	–	> 100	–	> 100	> 100	> 100
CC(=O)c1cc(C)n2c1CS[C@@H]2c1ccccc1	> 100	60.9	29	> 100	> 100	> 100	> 100	> 100	> 100	> 100	> 100	–
CN(C)Cc1cc(C(C)(C)C)cc(C2CCCCC2)c1O	–	27.1	27.2	33.9	–	33.9	26.4	36.4	26.7	72.2	26.3	–
CCC(=O)C(C(C)/C=C/CCSc1ccccc1)C(O)CCCCCC(=O)OC (centres undefined)	> 100	> 100	> 100	–	> 100	–	> 100	> 100	> 100	> 100	> 100	> 100
CCCCNC(=S)/N=C/c1c(O)c2ccccc2[nH]c1=O	> 10	> 10	> 10	> 10	> 10	–	> 10	> 10	> 10	> 10	> 10	–
O=c1[nH]n(Cc2ccccc2Cl)c2ccccc12	–	> 100	> 100	> 100	> 100	> 100	> 100	–	> 100	> 100	> 100	> 100
COP(=O)(OC)/C(=C\c1cn(C(c2ccccc2)(c2ccccc2)c2ccccc2)cn1)NC(C)=O	–	> 100	> 100	> 100	> 100	> 100	> 100	> 100	> 100	> 100	> 100	> 100
c1ccc(CC2(c3cc4ccccc4[nH]3)OCCO2)nc1	> 100	> 100	> 100	> 100	> 100	> 100	> 100	–	> 100	> 100	> 100	> 100
COCCOC(=O)C(C)=[N+]=[N-]	> 100	–	> 100	–	–	> 100	> 100	> 100	> 100	> 100	> 100	> 100
CC(C)C(NCc1c(O)ccc2c(-c3ccccc3)cc(=O)oc12)C(=O)O (centres undefined)	–	> 100	> 100	> 100	> 100	> 100	> 100	> 100	> 100	> 100	> 100	> 100

Structure (SMILES)	TGI (BT-549 breast) [µM]	TGI (CCRF-CEM leukemia) [µM]	TGI (COLO 205 colon) [µM]	TGI (HL-60(TB) leukemia) [µM]	TGI (HOP-92 NSCLC) [µM]	TGI (HS 578T breast) [µM]	TGI (KM12 colon) [µM]	TGI (MCF7 breast) [µM]	TGI (MDA-MB-231 breast) [µM]	TGI (NCI-H23 lung) [µM]	TGI (SK-MEL-28 melanoma) [µM]	TGI (MDA-N) [µM]
COc1cc(C(=O)Oc2c(C#N)sc3c2c(=O)n(-c2ccccc2)c(=S)n3-c2ccccc2)cc(OC)c1OC	–	28.9	30.7	41.3	64.4	42.5	39.7	57.1	77.9	38.9	46.3	> 100
COc1ccc2c(c1)CCC(OS(=O)(=O)CC13CCC(CC1=O)C3(C)C)C2=O (centres undefined)	–	> 100	91.9	47.5	93.2	–	41.1	–	–	36.1	> 100	–
O=C(NNC(=O)c1ccccc1O)c1ccc(O)cc1	> 100	> 100	> 100	> 100	–	> 100	> 100	> 100	69.7	–	> 100	> 100
CC(CCCOC(c1ccccc1)(c1ccccc1)c1ccccc1)OC(=O)Nc1ccccc1 (centres undefined)	–	33.1	32.3	31.4	21.7	–	27.1	–	–	21.7	28.7	–
CC1(C)O[C@@H](CBr)C[C@H](C[C@H]2C[C@@H](O)C[C@@H](CCOCc3ccccc3)O2)O1	–	> 100	54.4	–	77.5	47.7	40.7	46.2	> 100	36.7	69.2	–
CC1=C(C(=O)Nc2ccc([N+](=O)[O-])cc2)C(c2ccccc2F)C(C(=O)Nc2ccc([N+](=O)[O-])cc2)=C(C)N1	–	48.7	29.7	24.7	31.1	–	53.9	–	–	44.4	> 100	–
CCC(=O)N/N=C(\C=C\c1cccc(O)c1)c1sc(Nc2ccc(C)cc2[N+](=O)[O-])nc1C	–	> 100	> 100	> 100	27.5	–	> 100	–	–	6.72	> 100	–
Cc1ccc(NC(=O)C(=O)Cc2cc[n+]([O-])cc2)cc1	–	> 100	> 100	> 100	> 100	–	> 100	–	–	> 100	> 100	–
O=C(/C=C(\O)c1ccccc1)c1cc(-c2ccccc2)n(-c2ccccc2)n1	26.1	7.16	37.4	> 100	–	> 100	> 100	> 100	64.4	> 100	–	> 100
CCOC(=O)C1=C(Nc2ccc(Cl)c(Cl)c2)OC/C1=N\NS(=O)(=O)c1ccc(C)cc1	–	> 100	> 100	> 100	–	–	> 100	–	–	> 100	> 100	–
COc1cc(C2C(Cl)C(=O)N2NC(=O)c2ccc(NC(C)=O)cc2OC)ccc1O (centres undefined)	33.9	14.6	32	44.8	31.3	–	68	38.1	–	39.8	97.8	50.7
CC(=O)C1=CCC2c3[nH]c4ccccc4c3CCN2C1 (centres undefined)	–	> 100	> 100	> 100	> 100	–	> 100	–	–	> 100	> 100	–
COC(=O)c1c(-c2ccccc2)c2sc3ccccc3n2c1N	> 100	> 100	97	–	98	–	88.8	> 100	> 100	> 100	> 100	> 100
O=C1c2ccccc2-c2c1c(-c1cccc(Br)c1)nc1ccc3ccccc3c21	> 100	> 100	> 100	–	–	> 100	> 100	> 100	> 100	> 100	> 100	> 100
COc1ccc(CCNC(=O)[C@H]2CCCC[C@@H]2CCO)cc1OC	> 100	> 100	> 100	> 100	> 100	> 100	> 100	> 100	> 100	> 100	> 100	–
CCC1CN2CCC3(c4ccccc4)CC(C(=O)OC)=CC1C23 (centres undefined)	–	> 100	31.1	–	25.9	–	28.2	–	–	28.9	31.5	–
CC(=O)ON(C(C)=O)c1ccc(-c2nc3ccccc3s2)cc1C	> 100	> 100	> 100	–	> 100	> 100	> 100	–	> 100	> 100	> 100	> 100
O=C(CSC1=NNC2(C(=O)N1)c1ccccc1-c1ccccc12)NC(=S)Nc1ccccc1	> 10	> 10	> 10	> 10	> 10	–	> 10	> 10	> 10	> 10	> 10	> 10
O=C(Nc1ccn(CCI)c(=O)n1)c1ccccc1	–	> 100	> 100	> 100	> 100	–	> 100	–	–	–	> 100	–
COc1ccc(NC2CC(C)N(C(=O)c3ccccc3)O2)cc1 (centres undefined)	> 10	> 10	> 10	> 10	–	> 10	–	> 10	> 10	> 10	> 10	> 10
COc1ccccc1CNC(=O)[C@H](Cc1ccc(O)cn1)NC(C)=O	> 100	> 100	> 100	> 100	> 100	> 100	> 100	> 100	–	> 100	> 100	> 100
O=C(CC1C(=O)c2ccccc2C1=C1C(=O)c2ccccc2C1=O)c1ccccc1 (centres undefined)	–	> 100	> 100	> 100	> 100	–	> 100	–	–	> 100	> 100	–

— PubChem BioAssay (NCI)
